By EC50 is commonly meant the concentration at which the effect is half-maximal. Read a high EC50 as weaker potency.

The test concerns the target T1, human RXFP1 (Homo sapiens, UniProt Q9HBX9).
T1 construct: expressed in transfected cells
T1 sequence (Q9HBX9 1-757): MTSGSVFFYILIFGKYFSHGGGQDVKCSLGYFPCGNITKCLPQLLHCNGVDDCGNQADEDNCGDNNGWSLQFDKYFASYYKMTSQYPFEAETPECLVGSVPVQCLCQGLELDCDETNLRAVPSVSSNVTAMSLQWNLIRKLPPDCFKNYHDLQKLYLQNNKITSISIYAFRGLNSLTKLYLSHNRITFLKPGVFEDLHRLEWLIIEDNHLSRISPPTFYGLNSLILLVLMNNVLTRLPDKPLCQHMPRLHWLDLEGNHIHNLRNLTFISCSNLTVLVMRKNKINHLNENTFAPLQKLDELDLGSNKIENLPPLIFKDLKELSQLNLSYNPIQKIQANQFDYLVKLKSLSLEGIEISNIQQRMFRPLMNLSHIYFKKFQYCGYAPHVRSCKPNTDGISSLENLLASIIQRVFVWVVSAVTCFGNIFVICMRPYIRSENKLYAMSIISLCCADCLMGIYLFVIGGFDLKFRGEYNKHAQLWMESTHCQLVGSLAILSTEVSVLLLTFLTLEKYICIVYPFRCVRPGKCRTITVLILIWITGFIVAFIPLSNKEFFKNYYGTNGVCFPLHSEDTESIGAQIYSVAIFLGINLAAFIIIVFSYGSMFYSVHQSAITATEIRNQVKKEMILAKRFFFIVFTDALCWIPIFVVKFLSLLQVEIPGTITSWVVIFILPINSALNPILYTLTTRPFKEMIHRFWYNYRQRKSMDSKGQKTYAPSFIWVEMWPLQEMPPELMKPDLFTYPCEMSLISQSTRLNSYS
Put plainly: hRXFP1 HEK293 cAMP assay (HTRF). As to conditions: HEK293 cells stably expressing human RXFP1, 30 min at room temperature. The test is classed as cell-based. Put shortly:
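Intracellular cAMP was read by HTRF, with potency fitted to a 4-parameter logistic curve. Compound exposure (0.010 nM–50 μM final, 2% DMSO) lasted 30 min at room temperature. Cells were hRXFP1-HEK293 at 1500 per well in IBMX-containing (0.5 mM) HEPES-buffered HBSS.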
For orientation: cAMP levels reflect the balance of adenylyl cyclase and phosphodiesterase activity.

In turn, `COc1ccc(C[C@@H]2CCC(=O)N2)cc1C(=O)NC1C2CCC(/C2=C/C(F)(F)F)[C@@H]1C(=O)Nc1ccc(F)c(C(F)(F)F)c1` (stereo partly drawn) [Example 183, (7Z)-N-[4-fluoro-3-(trifluoromethyl)phe-nyl]-3-(2-methoxy-5-{[(2S)-5-oxopyrrolidin-2-yl]methyl}benzamido)-7-(2,2,2-trifluoroethylidene)bi-cyclo[2.2.1]heptane-2-carboxamide] displayed a concentration for a half-maximal effect (EC50) of 850 nM.

Compound `COc1ccc(CC[C@@H](C)O)cc1C(=O)N[C@@H]1C2CCC(/C2=C/C2CC2)[C@@H]1C(=O)Nc1ccc(F)c(C(F)(F)F)c1` (stereo partly drawn) [Example 95, (2S,3R,7Z)-7-(cyclopropylmethyli-dene)-N-[4-fluoro-3-(trifluoromethyl)phe-nyl]-3-{5-[(3R)-3-hydroxybutyl]-2-methoxybenzamido} bicyclo[2.2.1]heptane-2-carboxamide] yielded an EC50 of 50 nM. Compared with the last compound, the EC50 is about 17-fold lower.

Compound `COc1ccc(CCCNC(=O)C2CCOCC2)cc1C(=O)N[C@@H]1C2CCC(/C2=C/C(F)(F)F)[C@@H]1C(=O)Nc1ccc(F)c(C(F)(F)F)c1` (stereo partly drawn) [Example 115, N-[3-(3-{[(2R,3S,7Z)-3-{[4-fluoro-3-(trifluoromethyl)phe-nyl]carbamoyl}-7-(2,2,2-trifluoroethylidene)bi-cyclo[2.2.1]heptan-2-yl]carbamoyl}-4-methoxyphenyl)pro-pyl]oxane-4-carboxamide] came in with an EC50 of 536 nM.

`C#Cc1ccc(OC)c(C(=O)N[C@@H]2C3CCC(/C3=C/C(F)(F)F)[C@@H]2C(=O)Nc2ccc(F)c(C(F)(F)F)c2)c1` (stereo partly drawn) [Example 75, (2S,3R,7Z)-3-(5-ethynyl-2-methoxybenzamido)-N-[4-fluoro-3-(trifluoromethyl)phe-nyl]-7-(2,2,2-trifluoroethylidene)bi-cyclo[2.2.1]heptane-2-carboxamide] came in with an EC50 of 91 nM.

Turning to `COc1ccc(CCCCCCC#N)cc1C(=O)NC1C2CCC(/C2=C/C2CCC2)[C@@H]1C(=O)Nc1ccc(F)c(C(F)(F)F)c1` (stereo partly shown) [Example 192, (7Z)-3-[5-(6-cyanohexyl)-2-methoxybenzamido]-7-(cyclobutylmethyl-idene)-N-[4-fluoro-3-(trifluoromethyl)phe-nyl]bicyclo[2.2.1] heptane-2-carboxamide], the EC50 is 33 nM.

Regarding `COc1ccc(C(=O)N2CC[C@H](O)C2)cc1C(=O)N[C@H]1[C@@H](C(=O)Nc2ccc(F)c(C(F)(F)F)c2)[C@H]2CC[C@@H]1/C2=C\C1CC1` [Example 254, (1R,2S,3R, 4R,7Z)-7-(cyclopropyl-methylidene)-N-[4-fluoro-3-(trifluoromethyl)phenyl]-3-{5-[(3S)-3-hydroxypyrrolidine-1-carbonyl]-2-methoxybenzamido} bicyclo[2.2.1] heptane-2-carboxamide], it took 54 nM to reach a half-maximal effect (EC50).

In the case of `COc1ccc(C(=O)OC(C)(C)C)cc1C(=O)N[C@H]1[C@@H](C(=O)Nc2ccc(F)c(C(F)(F)F)c2)[C@H]2CC[C@@H]1/C2=C\C1CC1` [Example 227], the EC50 worked out at 77.2 nM.

The compound `COc1ccc(C(=O)N2CCS(=O)(=O)CC2)cc1C(=O)N[C@H]1[C@@H](C(=O)Nc2ccc(F)c(C(F)(F)F)c2)[C@H]2CC[C@@H]1/C2=C\C1CC1` [Example 242, (1R,2S,3R,4R,7Z)-7-(cyclopropyl-methylidene)-3-[5-(1,1-dioxo-1λ.^6-thiomorpholine-4-carbonyl)-2-methoxybenzamido]-N-[4-fluoro-3-(trifluoromethyl)phenyl]bicyclo [2.2.1] heptane-2-carboxamide] had an EC50 of 261 nM.

In the case of `COc1ccc(/C=C/C(=O)NC2CCC2)cc1C(=O)NC1C2CCC(/C2=C/C(F)(F)F)[C@@H]1C(=O)Nc1ccc(F)c(C(F)(F)F)c1` (stereo partly drawn) [Example 135, (2S,3R,7Z)-3-{5-[(1E)-2-(cyclobutylcarbamoyl)eth-1-en-1-yl]-2-methoxybenzamido}-N-[4-fluoro-3-(trifluoromethyl)phe-nyl]-7-(2,2,2-trifluoroethylidene)bi-cyclo[2.2.1]heptane-2-carboxamide], the response was half-maximal at 644 nM (EC50).

For the compound `COc1ccc(C(O)C(F)(F)F)cc1C(=O)NC1C2CCC(/C2=C/C(F)(F)F)[C@@H]1C(=O)Nc1ccc(F)c(C(F)(F)F)c1` (single isomer, unassigned) [Example 6], the response was half-maximal at 1240 nM (EC50).

As for `COc1ccc(CCC(=O)N2CC[C@H](O)C2)cc1C(=O)N[C@@H]1C2CCC(/C2=C/C(F)(F)F)[C@@H]1C(=O)Nc1ccc(F)c(C(F)(F)F)c1` (stereo partly drawn) [Example 138, (2S,3R,7Z)-N-[4-fluoro-3-(trifluoromethyl)phe-nyl]-3-(5-{3-[(3S)-3-hydroxypyrrolidin-1-yl]-3-oxopropyl}-2-methoxybenzamido)-7-(2,2,2-trifluoroethylidene)bi-cyclo[2.2.1]heptane-2-carboxamide], the EC50 was determined as 428 nM. Against the preceding compound, the EC50 is about 2.9-fold lower.

`COc1ccc(CCC(C)(C)O)cc1C(=O)N[C@@H]1C2CCC(/C2=C/C(F)(F)F)[C@@H]1C(=O)Nc1ccc(F)c(C(F)(F)F)c1` (stereo partly shown) [Example 82] showed an EC50 of 125 nM.

In the case of `COc1ccc(CCCNC(=O)C2CCC2)cc1C(=O)N[C@@H]1C2CCC(/C2=C/C(F)(F)F)[C@@H]1C(=O)Nc1ccc(F)c(C(F)(F)F)c1` (stereo partly drawn) [Example 112, (2S,3R,7Z)-3-{5-[3-(cyclobutylformami-do)propyl]-2-methoxybenzamido}-N-[4-fluoro-3-(trifluoromethyl)phe-nyl]-7-(2,2,2-trifluoroethylidene)bi-cyclo[2.2.1]heptane-2-carboxamide], the EC50 came to 324 nM.

In turn, `COc1ccc(CCCCCCO)cc1C(=O)N[C@@H]1C2CCC(/C2=C/C(F)(F)F)[C@@H]1C(=O)Nc1ccc(F)c(C(F)(F)F)c1` (stereo partly drawn) [Example 99, (2S,3R,7Z)-N-[4-fluoro-3-(trifluoromethyl)phe-nyl]-3-[5-(6-hydroxyhexyl)-2-methoxybenzamido]-7-(2,2,2-trifluoroethylidene)bi-cyclo[2.2.1]heptane-2-carboxamide] showed an EC50 of 268 nM.

Consider `COc1ccc(COC2(C(=O)NCCO)CC2)cc1C(=O)N[C@@H]1C2CCC(/C2=C/C2CC2)[C@@H]1C(=O)Nc1ccc(F)c(C(F)(F)F)c1` (stereo partly shown) [Example 17], for which the EC50 was 121 nM.

Take `COc1ccc(CN2CCOCC2)cc1C(=O)N[C@@H]1C2CCC(/C2=C/C(F)(F)F)[C@@H]1C(=O)Nc1ccc(F)c(C(F)(F)F)c1` (stereo partly drawn) [Example 13, (2S,3R,7Z)N-[4-fluoro-3-(trifluoromethyl)phe-nyl]-3-{2-methoxy-5-[(morpholin-4-yl)methyl]benzamido}-7-(2,2,2-trifluoroethylidene)bi-cyclo[2.2.1]heptane-2-carboxamide]: the EC50 was 625 nM.

Consider `COc1ccc(CC(=O)N2CCC(C)(O)C2)cc1C(=O)NC1C(C(=O)Nc2ccc(F)c(C(F)(F)F)c2)[C@H]2CC[C@@H]1/C2=C\C1CC1` (stereo partly drawn) [Example 357, (1R,4R,7Z)-7-(cyclopropyl-methylidene)-N-[4-fluoro-3-(trifluoromethyl)phenyl]-3-{5-[2-(3-hydroxy-3-methylpyrrolidin-1-yl)-2-oxoethyl]-2-methoxybenzamido} bicyclo[2.2.1]heptane-2-carboxamide], for which the EC50 was 1290 nM. Compared with the last compound, the EC50 is about 2.1-fold higher.

The compound `COc1ccc(COC2CCOCC2)cc1C(=O)N[C@H]1[C@@H](C(=O)Nc2ccc(F)c(C(F)(F)F)c2)[C@H]2CC[C@@H]1/C2=C\C1CC1` [Example 288, (1R,2S,3R,4R,7Z)-7-(cyclopropyl-methylidene)-N-[4-fluoro-3-(trifluoromethyl)phenyl]-3-{2-methoxy-5-[(oxan-4-yloxy)methyl]benzamido} bicyclo[2.2.1] heptane-2-carboxamide] showed an EC50 of 58.7 nM.

`COc1ccc(C2CCC(O)CC2)cc1C(=O)NC1C2CCC(/C2=C/C(F)(F)F)[C@@H]1C(=O)Nc1ccc(F)c(C(F)(F)F)c1` (single isomer, unassigned) [Example 52] gave an EC50 of 276 nM.

`COc1ccc(C(=O)N2CCO[C@@H](CO)C2)cc1C(=O)N[C@H]1[C@@H](C(=O)Nc2ccc(F)c(C(F)(F)F)c2)[C@H]2CC[C@@H]1/C2=C\C1CC1` [Example 231, (1R,2S,3R,4R,7Z)-7-(cyclopropylmethyl-idene)-N-[4-fluoro-3-(trifluoromethyl)phenyl]-3-{5-[(2R)-2-(hydroxymethyl)morpholine-4-carbonyl]-2-methoxybenzamido} bicyclo[2.2.1] heptane-2-carboxamide] registered an EC50 of 32 nM.

The compound `COc1ccc(C(=O)N2CC(C)(C)C2)cc1C(=O)N[C@H]1[C@@H](C(=O)Nc2ccc(F)c(C(F)(F)F)c2)[C@H]2CC[C@@H]1/C2=C\C1CC1` [Example 237] came in with an EC50 of 41.3 nM.

`COc1ccc(CCCO)cc1C(=O)N[C@H]1[C@@H](C(=O)Nc2ccc(F)c(C(F)(F)F)c2)[C@H]2CC[C@@H]1/C2=C\C(C)C` [Example 157, (1R,2S,3R,4R,Z)—N-(4-fluoro-3-(trifluoromethyl)phenyl)-3-(5-(3-hydroxypropyl)-2-methoxybenzamido)-7-(2-methylpropylidene) bicyclo[2.2.1]heptane-2-carboxamide] showed an EC50 of 54 nM.

The values are drawn from patent US20250268903A1, “RXFP1 AGONISTS” (BRISTOL-MYERS SQUIBB COMPANY, priority 2021, published 2025).
